Measurements published in patent publication US20240262848A1, “HETEROCYCLIC COMPOUNDS, COMPOSITIONS THEREOF, AND METHODS OF TREATMENT THEREWITH” (BeiGene, Ltd., priority 2022, published 2024).

Experiments:
[1] = test system: pERK1/2(THR202/TYR204) level in SW620 cell line; experiment: KRAS G12V pERK assay in SW620 cells (HTRF); format: cell-based; settings: Homo sapiens, SW-620, Table 4, 2 hrs compound treatment
Protocol: SW620 cell line was used in this study. Cells were maintained in RPMI 1640 supplemented with 10% fetal bovine serum (Thermo Fisher), 50 units/mL penicillin and streptomycin (Thermo Fisher) and kept at 37° C. in a humidified atmosphere of 5% CO2 in air. Cells were reinstated from frozen stocks that were laid down within 30 passages from the original cells purchased. 40000 cells per well were seeded into a 96-well plate and incubated overnight. Cells were treated with a 10-point dilution series. The final compound concentration is from 0 to 10 μM. After 2 hrs compound treatment, cells were lysed, and the pERK1/2(THR202/TYR204) level in the cell lysates was detected by HTRF kit (Cisbio). In brief, a total of 16 μL of cell lysate from each well of a 96-well plate was transferred to a 384-well white assay plate. Lysate from each well was incubated with 2 μL of Eu3+-cryptate (donor) labeled anti-phospho-ERK1/2 and 2 μL of D)2 (acceptor) labeled anti-phospho-ERK1/2 antibodies (Cisbio) overnight in dark at room temperature. When donor and acceptor are in close proximity, excitation of the donor with laser triggers a Fluorescence Resonance Energy Transfer (FRET) towards the acceptor, which in turn fluoresces at 655 nm wavelength. FRET signals were measured using a PHERAstar FSX reader (BMG Labtech). IC50 determination was performed by fitting the curve of percent inhibition versus the log of the inhibitor concentration using Dotmatics.

[2] = molecular target: GST-tagged GDP-loaded KRAS G12V (amino acids 1-169) (Homo sapiens, UniProt P01116, G12V); experiment: KRAS G12V probe displacement assay (TR-FRET); format: binding; settings: Table 4; KRAS G12V 2 nM, biotinylated probe 2 2.5 nM
GST-tagged GDP-loaded KRAS G12V (amino acids 1-169), sequence (P01116 1-169 isoform P01116-2 G12V): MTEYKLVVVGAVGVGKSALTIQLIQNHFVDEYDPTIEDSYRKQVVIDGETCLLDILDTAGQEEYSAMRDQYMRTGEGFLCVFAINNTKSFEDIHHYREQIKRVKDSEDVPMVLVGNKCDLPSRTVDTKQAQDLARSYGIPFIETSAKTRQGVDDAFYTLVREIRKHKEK
Protocol: Plates are incubated at 24 °C for 1 hr. […] After 1 hr incubation at 24° C.

SMILES	IC50 [1] [nM]	IC50 [2] [nM]
CN1c2nc(OC[C@@]34CCCN3C[C@H](F)C4)nc3c(F)c(-c4ccc(F)c5sc(N)c(C#N)c45)c(Cl)c(c23)OCC12COC2 [Example 18, 2-amino-4-(8′-chloro-10′-fluoro-2′-(((2R,7aS)-2-fluorotetrahydro-1H-pyrrolizin-7a(5H)-yl)methoxy)-4′-methyl-4′H, 6′H-spiro[oxetane-3,5′-[1,4]oxazepino[5,6,7-de]quinazolin]-9′-yl)-7-fluorobenzo[b]thiophene-3-carbonitrile]	55	0.84
C[C@@H]1CCOc2c(Cl)c(-c3ccc(F)c4sc(N)c(C#N)c34)c(F)c3nc(OC[C@@]45CCCN4C[C@H](F)C5)nc(c23)N1C [Example 19, 2-amino-4-((R)-9-chloro-11-fluoro-2-(((2R,7aS)-2-fluorotetrahydro-1H-pyrrolizin-7a(5H)-yl)methoxy)-4,5-dimethyl-4,5,6,7-tetrahydro-[1,5]oxazocino[4,3,2-de]quinazolin-10-yl)-7-fluorobenzo[b]thiophene-3-carbonitrile]	22	0.65
CC1CC(C)N(C)c2nc(OC[C@@]34CCCN3C[C@H](F)C4)nc3c(F)c(-c4cc(N)cc(Cl)c4C(F)(F)F)nc(c23)O1 (stereo partly drawn) [Example 21, 3-chloro-5-(4-fluoro-2-(((2R,7aS)-2-fluorotetrahydro-1H-pyrrolizin-7a(5H)-yl)methoxy)-8,10,11-trimethyl-8,9,10,11-tetrahydro-7-oxa-1,3,6,11-tetraazacycloocta[de]naphthalen-5-yl)-4-(trifluoromethyl)aniline]	26	1.7
CC1COc2nc(-c3cc(N)cc(Cl)c3C(F)(F)F)c(F)c3nc(OC[C@@]45CCCN4C[C@H](F)C5)nc(c23)N1C (stereo partly drawn) [Example 22, 3-chloro-5-(4-fluoro-2-(((2R,7aS)-2-fluorotetrahydro-1H-pyrrolizin-7a(5H)-yl)methoxy)-9,10-dimethyl-9,10-dihydro-8H-7-oxa-1,3,6,10-tetraazacyclohepta[de]naphthalen-5-yl)-4-(trifluoromethyl)aniline]	303	6.8
CN1c2nc(OC[C@@]34CCCN3C[C@H](F)C4)nc3c(F)c(-c4cc(N)cc(Cl)c4C(F)(F)F)nc(c23)OCC12COC2 [Example 23, 3-chloro-5-(4-fluoro-2-(((2R,7aS)-2-fluorotetrahydro-1H-pyrrolizin-7a(5H)-yl)methoxy)-10-methyl-8H, 10H-7-oxa-1,3,6,10-tetraazaspiro[cyclohepta[de]naphthalene-9,3′-oxetan]-1(10a), 2,3a, 3a^1(6a), 5-pentaen-5-yl)-4-(trifluoromethyl)aniline]	338	9.2
CN1c2nc(OC[C@@]34CCCN3C[C@H](F)C4)nc3c(F)c(-c4cc(N)cc(Cl)c4C(F)(F)F)nc(c23)OCC12CCC2 [Example 24, 3-chloro-5-(4′-fluoro-2′-(((2R,7aS)-2-fluorotetrahydro-1H-pyrrolizin-7a(5H)-yl)methoxy)-10′-methyl-8′H, 10′H-7′-oxa-1′,3′,6′,10′-tetraazaspiro[cyclobutane-1,9′-cyclohepta[de]naphthalen]-1′(10a′), 2′,3a′, 3 al′(6a′), 5′-pentaen-5′-yl)-4-(trifluoromethyl)aniline]	95	2.6
C[C@@H]1CCOc2nc(-c3cc(N)cc(Cl)c3C(F)(F)F)c(F)c3nc(OC[C@@]45CCCN4C[C@H](F)C5)nc(c23)N1C [Example 26, 3-chloro-5-((R)-4-fluoro-2-(((2R,7aS)-2-fluorotetrahydro-1H-pyrrolizin-7a(5H)-yl)methoxy)-10,11-dimethyl-8,9,10,11-tetrahydro-7-oxa-1,3,6,11-tetraazacycloocta[de]naphthalen-5-yl)-4-(trifluoromethyl)aniline]	32	0.79
CN1c2nc(OC[C@@]34CCCN3C[C@H](F)C4)nc3c(F)c(-c4ccc(F)c5sc(N)c(C#N)c45)c(Cl)c(c23)OCCC12COC2 [Example 28, 2-amino-4-(9′-chloro-11′-fluoro-2′-(((2R,7aS)-2-fluorotetrahydro-1H-pyrrolizin-7a(5H)-yl)methoxy)-4′-methyl-6′,7′-dihydro-4′H-spiro[oxetane-3,5′-[1,5]oxazocino[4,3,2-de]quinazolin]-10′-yl)-7-fluorobenzo[b]thiophene-3-carbonitrile]	206	2.5
CN1c2nc(OC[C@@]34CCCN3C[C@H](F)C4)nc3c(F)c(-c4cc(N)cc(Cl)c4C(F)(F)F)nc(c23)OCC12CC2 [Example 29, 3-chloro-5-(4-fluoro-2-(((2R,7aS)-2-fluorotetrahydro-1H-pyrrolizin-7a(5H)-yl)methoxy)-10-methyl-8H, 10H-7-oxa-1,3,6,10-tetraazaspiro[cyclohepta[de]naphthalene-9,1′-cyclopropan]-1(10a), 2,3a, 3 al(6a), 5-pentaen-5-yl)-4-(trifluoromethyl)aniline]	56	0.95
CN1c2nc(OC[C@@]34CCCN3C[C@H](F)C4)nc3c(F)c(-c4cc(N)cc(Cl)c4C(F)(F)F)nc(c23)OCCC12CCC2 [Example 32, 3-chloro-5-(4′-fluoro-2′-(((2R,7aS)-2-fluorotetrahydro-1H-pyrrolizin-7a(5H)-yl)methoxy)-11′-methyl-8′,9′-dihydro-11′H-7′-oxa-1′,3′,6′,11′-tetraazaspiro[cyclobutane-1,10′-cycloocta[de]naphthalen]-1′(11a′), 2′,3a′, 3 al′(6a′), 5′-pentaen-5′-yl)-4-(trifluoromethyl)aniline]	133	3.4
CN1c2nc(OC[C@@]34CCCN3C[C@H](F)C4)nc3c(F)c(-c4cc(N)cc(Cl)c4C(F)(F)F)nc(c23)OCCC12CC(O)C2 (stereo partly drawn) [Example 33, 5′-(5-amino-3-chloro-2-(trifluoromethyl)phenyl)-4′-fluoro-2′-(((2R,7aS)-2-fluorotetrahydro-1H-pyrrolizin-7a(5H)-yl)methoxy)-11′-methyl-8′,9′-dihydro-11′H-7′-oxa-1′,3′,6′,11′-tetraazaspiro[cyclobutane-1,10′-cycloocta[de]naphthalen]-1′(11a′), 2′0.3a′, 3 al′(6a′), 5′-pentaen-3-ol]	17	0.39
CN1c2nc(OC[C@@]34CCCN3C[C@H](F)C4)nc3c(F)c(-c4cc(N)cc(Cl)c4C(F)(F)F)nc(c23)OC2CCCC21 (stereo partly drawn) [Example 45, 3-chloro-5-((7a, 10a-trans)-4-fluoro-2-(((2R,7aS)-2-fluorotetrahydro-1H-pyrrolizin-7a(5H)-yl)methoxy)-11-methyl-7a, 8,9,10,10a, 11-hexahydro-7-oxa-1,3,6,11-tetraazanaphtho[1,8-fg]azulen-5-yl)-4-(trifluoromethyl)aniline]	82	2.7
CN1c2nc(OC[C@@]34CCCN3C[C@H](F)C4)nc3c(F)c(-c4cc(N)cc(Cl)c4C(F)(F)F)nc(c23)O[C@H]2CCCC[C@@H]21 [Example 46, 3-chloro-5-((7aS,11aS)-4-fluoro-2-(((2R,7aS)-2-fluorotetrahydro-1H-pyrrolizin-7a(5H)-yl)methoxy)-12-methyl-7a, 8,10,11,11a, 12-hexahydro-9H-7-oxa-1,3,6,12-tetraazapleiaden-5-yl)-4-(trifluoromethyl)aniline]	37	0.48
CN1c2nc(OC[C@@]34CCCN3C[C@H](F)C4)nc3c(F)c(-c4cc(N)cc(Cl)c4C(F)(F)F)nc(c23)O[C@H]2CCOC[C@@H]21 [Example 50, 3-chloro-5-((7aS,11aS)-4-fluoro-2-(((2R,7aS)-2-fluorotetrahydro-1H-pyrrolizin-7a(5H)-yl)methoxy)-12-methyl-7a, 8,11a, 12-tetrahydro-9H, 11H-7,10-dioxa-1,3,6,12-tetraazapleiaden-5-yl)-4-(trifluoromethyl)aniline]	28	0.61
CN1c2nc(OC[C@@]34CCCN3C[C@H](F)C4)nc3c(F)c(-c4cc(N)cc(Cl)c4C(F)(F)F)nc(c23)OC[C@H]2CCC[C@H]21 [Example 52, 3-chloro-5-((8aS,11aR)-4-fluoro-2-(((2R,7aS)-2-fluorotetrahydro-1H-pyrrolizin-7a(5H)-yl)methoxy)-12-methyl-8a, 9,10,11,11a, 12-hexahydro-8H-7-oxa-1,3,6,12-tetraazacyclopenta[5,6]cycloocta[1,2,3-de]naphthalen-5-yl)-4-(trifluoromethyl)aniline]	158	6.5
Cc1cc(N)cc(-c2nc3c4c(nc(OC[C@@]56CCCN5C[C@H](F)C6)nc4c2F)N(C)C2(CCO3)CC2)c1C(F)(F)F [Example 53, 3-(4-fluoro-2-(((2R,7aS)-2-fluorotetrahydro-1H-pyrrolizin-7a(5H)-yl)methoxy)-11-methyl-8,9-dihydro-11H-7-oxa-1,3,6,11-tetraazaspiro[cycloocta[de]naphthalene-10,1′-cyclopropan]-1(11a), 2,3a, 3 al(6a), 5-pentaen-5-yl)-5-methyl-4-(trifluoromethyl)aniline]	26	0.63
